Data taken from publication PMC5318439, “The Novel Toll-Like Receptor 2 Agonist SUP3 Enhances Antigen Presentation and T Cell Activation by Dendritic Cells” (Frontiers in Immunology, 2017).
Where a SMILES comes first, the peptide text is derived from it. The star is where a group is joined. X1 = CCCCCCCCCCCCCCNC(=O)OC[C@H](C*)OC(=O)NCCCCCCCCCCCCCC; Palmitoyl = CCCCCCCCCCCCCCCC(=O)*

Columns and labels:
[1] = system: OVA-specific CD8^+ T cells; assay: OCS immunization, OVA-specific CD8+ T cells (CTL induction) in spleen; type: in vivo, C57BL/6 mice; conditions: 10 nmol, data not shown; for CTL induction at high dose: OCS immunization; for spleen size at high dose: mice
Protocol: Splenocytes were X-ray irradiated (1500 Rad) and then coated with OVA (1 mg per spleen) in RPMI 1640 medium (Gibco 11875-119) for 30 min at 37°C. Cells were washed twice with RPMI 1640 medium. […] Seven days post-immunization, OVA-specific CD8^+ T cells in spleen were analyzed by flow cytometry by staining with fluorescence-conjugated antibodies against CD19 (eBioscinece, clone 1D3), CD3 (eBioscinece, clone 145-2C11), CD8 (eBioscinece, clone 53-6.7), and SIINFEKL/H-2Kb-Pentamer (ProImmune F093-4A).
Figure 2 SUP3 induced more vigorous cytotoxic T lymphocytes (CTLs) responses than Pam3CSK4 without excessive production of inflammatory cytokines in vivo. […] The percentages of pentamer positive cells (CD19^− CD3^+ CD8^+ SIINFEKL/H-2Kb-Pentamer^+) in spleens, i.e., the OVA-specific CD8^+ T cells, were determined by flow cytometry (A) and the statistic calculation is presented in (B). Representative data from three independent experiments with three mice in each group were presented. (C,D) Mice were immunized as in (A) for 30 days, then inoculated with OVA-expressing B16 melanoma cells (B16-OVA) (5 × 10^5 cells per mouse) by i.v. injection and analyzed for metastatic tumor formation in the lung 16 days after inoculation. Data from two independent experiments with three mice in each group were shown. […] “n.d.” indicates “not detected.” *p < 0.05, **p < 0.01. TEXT PRINTED IN THE PICTURE: (A) Pam3: Pentamer^+ (% of CD8^+ T): 1.57 (OCS) | (A) SUP3: Pentamer^+ (% of CD8^+ T): 2.98 (OCS) | (E) Pam3: IL-12p40 (ng/mL): n.d | (E) SUP3: IL-12p40 (ng/mL): n.d DOUBTS OF THE COPYIST ABOUT THIS PICTURE: Panel A also prints 0.37 for the control Non and 0.72 for the vehicle control PBS (OCS). Both are left out because they are controls, not test substances. / Panel E prints n.d for the vehicle control PBS in all four plots. These are left out for the same reason.

[2] = Serum inflammatory cytokines after i.v. administration; type: in vivo, mice; conditions: 2 nmol per mouse i.v., 1 h, ELISA
Protocol: Splenic DCs (5 × 10^5 cells/mL) were stimulated by Pam3 (200 nM), SUP3 (200 nM), or CpG ODN 1668 (20 nM; Adipogen IAX-200-001) in the GM-CSF (20 ng/mL) supplemented medium for indicated periods. Cell culture supernatants were harvested at indicated time points and stored at −40°C. RAW 264.7 cells and GMDCs were stimulated by lipopolysaccharide (LPS) (20 ng/mL; Adipogen IAX-100-013), Pam3, or SUP3 (both at 200 nM) for 24 h. For in vivo administration, Pam3 (2 nmol per mouse), SUP3 (2 nmol per mouse), or LPS (1 µg per mouse) were intravenously (i.v.) injected via tail veins. Serum was obtained through tail vein bleeding and centrifuged after coagulation and stored at −40°C. Cytokines (IL-6, eBioscience 88-7064; TNFα, eBioscience 88-7324; IL-12p40, BioLegend 431604), chemokine (MIP1α, R&D Systems DY450-05), and total IgM (eBioscience, 88-50470) were quantified by ELISA kits following the instructions of manufacturers.
Figure 2 SUP3 induced more vigorous cytotoxic T lymphocytes (CTLs) responses than Pam3CSK4 without excessive production of inflammatory cytokines in vivo. […] The percentages of pentamer positive cells (CD19^− CD3^+ CD8^+ SIINFEKL/H-2Kb-Pentamer^+) in spleens, i.e., the OVA-specific CD8^+ T cells, were determined by flow cytometry (A) and the statistic calculation is presented in (B). […] “n.d.” indicates “not detected.” *p < 0.05, **p < 0.01. […]

Molecule | CTL induction at high dose [1] | spleen size at high dose [1] | serum IL-6, TNFα, IL-12p40 and MIP1α levels [2]
Pam3CSK4 [reference compound] | did not have the same effect | did not have the same effect | maintained at low levels
CCCCCCCCCCCCCCCC(=O)N[C@@H](CSC[C@@H](COC(=O)NCCCCCCCCCCCCCC)OC(=O)NCCCCCCCCCCCCCC)C(=O)NCC(=O)N[C@@H](CCCCN)C(=O)N[C@@H](CCCCN)C(=O)N[C@@H](CCCCN)C(=O)O [SUP3, (2S,5S,8S,14R,18R)-2,5,8-tris(4-aminobutyl)-4,7,10,13,21-pentaoxo-14-palmitamido-18-((tetradecylcarbamoyl)oxy)-20-oxa-16-thia-3,6,9,12,22-pentaazahexatriacontan-1-oic acid] (Palmitoyl-C(X1)GKKK-OH) | decreased CTL induction | enlarged spleens | maintained at low levels
